Test results from paper PMC7076710, “Synthesis, Identification, and Structure–Activity Relationship Analysis of GATA4 and NKX2-5 Protein–Protein Interaction Modulators” (Journal of Medicinal Chemistry, 2019).

Key:
[1] = system: COS-1 cells; assay: LDH assay (necrosis); type: cell-based
[2] = system: COS-1 cells; assay: MTT assay (cell viability); type: cell-based; details: for MTT.1µM / MTT.3µM / MTT.10µM / MTT.30µM: cell viability; for toxicity class in the MTT assay: 24-h exposure, classified at 10 μM

Molecule | LDH.1µM [1] | LDH.3µM [1] | LDH.10µM [1] | LDH.30µM [1] | MTT.1µM [2] | MTT.3µM [2] | MTT.10µM [2] | MTT.30µM [2] | toxicity class in the MTT assay [2] | LDH.1µM ([1]; COS-1 cells) | LDH.3µM ([1]; COS-1 cells) | LDH.10µM ([1]; COS-1 cells) | LDH.30µM ([1]; COS-1 cells) | MTT.1µM ([2]; COS-1 cells) [%] | MTT.3µM ([2]; COS-1 cells) [%] | MTT.10µM ([2]; COS-1 cells) [%] | MTT.30µM ([2]; COS-1 cells) [%]
CCC(=O)N(Cc1ccc(N(CC)CC)cc1)c1c(-c2ccccc2)noc1C [Compound 58] | 0.36 | -0.8 | -1.03 | 1.47 | 99.35 | 82.12 | 76.17 | 63.57 | most toxic | – | – | – | – | – | – | – | –
CCN(CC)c1ccc(NC(=O)c2c(-c3ccccc3)noc2C)cc1 [Compound 1, N-[4-(Diethylamino)phenyl]-5-methyl-3-phenylisoxazole-4-carboxamide] | – | – | – | – | – | – | – | – | toxic (Toxic compounds (cell viability <90%)) | 1.16 | 0.89 | -0.76 | -0.02 | 98.55 | 96.23 | 89.96 | 91.57
Cc1onc(-c2ccccc2)c1COc1ccc(C(=O)OCCC#N)cc1 [Compound 35a, 2-Cyanoethyl 4-[(5-Methyl-3-phenylisoxazol-4-yl)methoxy]benzoate] | 0.51 | 1.44 | 1.72 | 1 | 83.35 | 72.67 | 66.11 | 61.55 | most toxic | – | – | – | – | – | – | – | –
N-[4-(Diethylamino)phenyl]-3-methyl-5-(4-methyl-1,2,3-thiadiazol-5-yl)isoxazole-4-carboxamide [Compound 47c] | -0.01 | -0.17 | 0.1 | -0.11 | 88.76 | 85.01 | 81.61 | 78.65 | high toxicity | – | – | – | – | – | – | – | –
COc1ccc(-c2cc(NC(=O)c3ccc(C(C)(C)C)cc3)n[nH]2)cc1 [Compound 72] | 2.2 | 0.82 | 0.22 | -0.27 | 110.93 | 101.15 | 102.37 | 107.89 | nontoxic (nontoxic compounds (cell viability >90%)) | – | – | – | – | – | – | – | –
Cc1onc(-c2ccccc2)c1C(=O)N(C1=NC(C)CS1)c1ccc(Cl)cc1 (centres unmarked) [Compound 2] | – | – | – | – | – | – | – | – | nontoxic (nontoxic compounds (cell viability >90%)) | 1.6 | 1.4 | 1.08 | 1.02 | – | 105.13 | 107.32 | 87.3
CCN(CC)c1ccc(NC(=O)c2cnsc2)cc1 [Compound 47s] | 3.18 | 0.65 | 1.08 | 0.91 | 103.66 | 95.56 | 92.49 | 105.44 | nontoxic (nontoxic compounds (cell viability >90%)) | – | – | – | – | – | – | – | –
